Experimental data as given in patent publication US7799794B2, “Treatment for cardiovascular disease” (Merck Sharp & Dohme Corp., priority 2000, dated 2010).
Marks after values point to notes of the source that are not given here.

System: Sprague-Dawley rats
Test: Cyclosporine nephropathy with or without oxonic acid: body weight, renal function, uric acid, CSA level (Example 5)
Conditions: 7 weeks
Method: Studies were conducted in 20 adult male Sprague-Dawley rats (Simmonsen Laboratories, Gilroy, Calif., USA) weighing 200 to 250 grams. All rats were fed a low salt diet (0.125% NaCl)(Zeigler Bros, Gardners, Pa.), with water ad libitum. […] In order to induce hyperuricemia, oxonic acid 2% was added to low salt diet. Because rats have uricase, an hepatic enzyme which degrades uric acid to allantoin, the blockade of this enzyme by oxonic acid is necessary.
After 7 weeks, rats were placed in individual metabolic cages for 24-hour urine collection. The following day, rats were anesthetized with xylazine and ketamine, serum was collected for creatinine and uric acid measurements, and both kidneys were obtained for histology evaluation. Biopsies were fixed in 10% formalin, 100% ethanol or Methyl Camoy's.
Serum and urine creatinine were measured by a standard picric acid method (Sigma Diagnostics creatinine kit, St. Louis, Mo.). Serum and urine uric acid were measured by a modified carbonate-phosphotungstate method [Henry, R. J., Sobel, C., and Kim, J., A modified carbonate phosphotungstate method for the determination of uric acid and comparison with the spectophotometric uricase method. Am J Clin Pathol 1957; 28:152.]. Fractional uric acid excretion and creatinine clearance were calculated by standard formulas.
All values are expressed as mean±SD, unless otherwise stated. The differences between groups were compared with unpaired Student's t tests.

O=C(O)c1nc(=O)[nH]c(=O)[nH]1 [oxonic acid]
urinary uric acid (24-hour urine, vehicle 2.19 ± 0.66): 5.06 ± 2.81^a mg/day | Serum Uric Acid (mean±SD, vehicle 1.62 ± 0.31): 4.08 ± 1.22^a mg/dl | Weight (mean±SD, vehicle 422.2 ± 31.2): 421.2 ± 28.8 grams | FE urate (fractional excretion of uric acid) (vehicle 0.12 ± 0.06): 0.11 ± 0.14 | Urate/creatinine (urine) (vehicle 0.20 ± 0.08): 0.35 ± 0.27 | Serum Creatinine (vehicle 0.94 ± 0.24): 0.88 ± 0.19 mg/dL | Creatnine Clearance (vehicle 1.39 ± 0.73): 1.94 ± 0.73 mL/min
